In patent US7897602B2, “Indolinone compounds as kinase inhibitors” (Development Center for Biotechnology, priority 2009, dated 2011):

Experiments:
Assay type in all cases: biochemical
[1] = target: T1, PDGFR-β kinase (Homo sapiens, UniProt P09619); assay: PDGFR-β kinase assay (33P incorporation into Poly(Glu-Tyr)); conditions: 500 nM test compound
T1 construct: recombinant N-terminal 6×His-tagged PDGFR-β kinase domain construct expressed by baculovirus; 6xHis (N); made in house
Procedure: Inhibition of PDGFR-β kinase activity by compounds disclosed herein was quantified by measuring the amount of [^33P] incorporated into the substrate in the presence of a test compound. Briefly, a reaction mixture of 25 μL final volume containing 55 ng of PDGFR-β kinase (obtained by purifying recombinant N-terminal 6×His-tagged PDGFR-β kinase domain construct expressed by baculovirus), 2.5 μg of the substrate (Poly (Glu-Tyr, 4:1, Sigma)), kinase reaction buffer (20 mM MOPS pH 7.0, 1 mM EDTA, 5% glycerol, 0.01% Brij-35, 0.1% β-mercaptoethanol, 1 mg/mL BSA, 2 mM MnCl2, 30 μM ATP, 0.1 μCi per well [^33P]-γ-ATP (2,500-3,000 Ci/mmol)), and a test compound (500 nM, diluted with 4% DMSO) or DMSO (as the control) was incubated at 30° C. for 30 minutes. The reaction was stopped by adding 5 μL of 3% phosphoric acid solution. The resultant reaction solution was then harvested onto a filter plate (UniFilter-96 GF/B, PerkinElmer), washed 20 times for 5 min with d.d. H2O, and followed by the addition of 30 μL of MicroScint™-20 Cocktail (PerkinElmer). The plate was then sealed and counted using a TopCount scintillation detector (PerkinElmer). The percentage of inhibition rate of the test compound was calculated by dividing the retained radioactivity of the test sample with the retained radioactivity of the control sample and shown in Table 3.

[2] = target: T2, Flt3 kinase (Homo sapiens, UniProt P36888); assay: Flt3 kinase assay (33P incorporation into Poly(Glu-Tyr)); conditions: 100 nM test compound; read-out: Inhibition at 100 nM (%) Flt-3
T2 construct: recombinant N-terminal 6×His-tagged Flt3 kinase domain construct expressed from baculovirus; 6xHis (N); made in house
T2 sequence (P36888 610-943 limits assumed): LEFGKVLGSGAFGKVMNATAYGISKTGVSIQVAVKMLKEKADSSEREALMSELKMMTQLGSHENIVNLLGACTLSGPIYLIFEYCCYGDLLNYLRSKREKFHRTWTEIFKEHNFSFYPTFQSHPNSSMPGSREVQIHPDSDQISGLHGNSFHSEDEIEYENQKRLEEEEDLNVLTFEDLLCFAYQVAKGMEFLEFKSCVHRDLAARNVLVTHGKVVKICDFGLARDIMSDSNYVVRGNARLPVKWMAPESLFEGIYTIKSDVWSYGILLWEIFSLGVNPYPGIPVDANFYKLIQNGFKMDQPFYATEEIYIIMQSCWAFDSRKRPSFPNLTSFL
Procedure: Inhibition of Flt3 kinase activity by compounds disclosed herein was quantified by measuring the amount of [^33P] incorporated into the substrate in the presence of a test compound. Briefly, a reaction mixture of 25 μL final volume containing 5 ng of Flt3 kinase (obtained by purifying recombinant N-terminal 6×His-tagged Flt3 kinase domain construct expressed from baculovirus), 5 μg of the substrate (Poly (Glu-Tyr, 4:1, Sigma)), kinase reaction buffer (20 mM MOPS pH 7.0, 1 mM EDTA, 5% glycerol, 0.01% Brij-35, 0.1% β-mercaptoethanol, 1 mg/mL BSA, 100 μM ATP, 0.1 μCi per well [^33P]-γ-ATP (2,500-3,000 Ci/mmol)), and a test compound (100 nM, diluted with 4% DMSO) or DMSO (as the control) was incubated at 30° C. for 30 minutes. The reaction was stopped by adding 5 μL of 3% phosphoric acid solution. The resultant reaction solution was then harvested onto a filter plate (UniFilter-96 GF/B, PerkinElmer), washed 20 times for 5 min with d.d. H2O, and followed by the addition of 30 μL of MicroScint™-20 Cocktail (PerkinElmer). The plate was then sealed and counted using a TopCount scintillation detector (PerkinElmer). The percentage of inhibition rate of the test compound was calculated by dividing the retained radioactivity of the test sample with the retained radioactivity of the control sample and shown in Table 3.

[3] = target: T3, Aurora A kinase (Homo sapiens, UniProt O14965); assay: Aurora A kinase assay ([γ-33P]ATP, CHOCKtide substrate); conditions: 1.0 μM test compound
T3 construct: purchased Upstate
T3 sequence (O14965 1-403): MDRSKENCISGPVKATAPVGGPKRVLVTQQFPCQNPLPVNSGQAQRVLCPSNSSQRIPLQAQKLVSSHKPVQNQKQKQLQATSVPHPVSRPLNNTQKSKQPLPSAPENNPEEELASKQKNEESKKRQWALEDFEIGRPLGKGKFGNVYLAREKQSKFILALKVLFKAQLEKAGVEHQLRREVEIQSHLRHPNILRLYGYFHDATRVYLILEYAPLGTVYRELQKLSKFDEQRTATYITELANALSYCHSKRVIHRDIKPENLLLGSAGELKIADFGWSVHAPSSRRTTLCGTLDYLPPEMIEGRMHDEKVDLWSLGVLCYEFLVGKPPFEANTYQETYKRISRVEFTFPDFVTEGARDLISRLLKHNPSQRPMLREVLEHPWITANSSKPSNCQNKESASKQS
How it was run: (§1)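 Radiometric filter-binding format: 33P incorporation into CHOCKtide counted after acid stop and filtration. Reactions ran 30 min at 33 °C, Aurora A with 10 μM ATP, Aurora B with 40 μM ATP. IC50 taken as concentration giving half-maximal kinase inhibition.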

[4] = target: T4, Aurora B kinase (Homo sapiens, UniProt Q96GD4); assay: Aurora B kinase assay ([γ-33P]ATP, CHOCKtide substrate); conditions: 1.0 μM test compound
T4 construct: purchased Cell signaling
T4 sequence (Q96GD4 whole entry): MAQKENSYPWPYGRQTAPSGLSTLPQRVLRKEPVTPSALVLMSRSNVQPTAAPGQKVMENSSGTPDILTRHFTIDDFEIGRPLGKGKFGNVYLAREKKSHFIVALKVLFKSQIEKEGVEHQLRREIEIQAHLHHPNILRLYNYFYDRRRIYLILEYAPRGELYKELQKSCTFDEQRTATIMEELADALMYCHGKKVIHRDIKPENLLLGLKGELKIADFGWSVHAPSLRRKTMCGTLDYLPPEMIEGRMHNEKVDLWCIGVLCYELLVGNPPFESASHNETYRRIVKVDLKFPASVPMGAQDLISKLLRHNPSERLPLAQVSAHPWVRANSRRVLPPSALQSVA
How it was run: as §1

[5] = target: T5, VEGFR2 kinase (Homo sapiens, UniProt P35968); assay: VEGFR2 kinase assay (33P incorporation into Poly(Glu-Tyr)); conditions: 500 nM test compound; read-out: Inhibition at 500 nM (%) VEGFr-2
T5 construct: recombinant N-terminal 6×His-tagged VEGFR2 kinase domain construct expressed by baculovirus; 6xHis (N); made in house
T5 sequence (P35968 834-1162 limits assumed): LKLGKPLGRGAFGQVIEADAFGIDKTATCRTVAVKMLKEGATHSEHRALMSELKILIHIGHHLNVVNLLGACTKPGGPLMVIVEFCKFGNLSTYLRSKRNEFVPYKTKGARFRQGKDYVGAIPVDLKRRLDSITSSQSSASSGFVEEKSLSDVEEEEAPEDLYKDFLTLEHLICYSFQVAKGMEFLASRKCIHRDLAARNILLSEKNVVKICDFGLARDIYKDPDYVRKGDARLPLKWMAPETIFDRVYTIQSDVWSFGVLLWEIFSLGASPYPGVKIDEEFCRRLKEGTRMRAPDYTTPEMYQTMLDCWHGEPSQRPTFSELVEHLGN
Procedure: Inhibition of VEGFR2 kinase activity by compounds disclosed herein was quantified by measuring the amount of [^33P] incorporated into the substrate in the presence of a test compound. Specifically, a reaction mixture with a final volume of 25 μL and containing 6.25 ng of VEGFR2 kinase (obtained by purifying recombinant N-terminal 6×His-tagged VEGFR2 kinase domain construct expressed by baculovirus), 5 μg of substrate (Poly (Glu-Tyr, 4:1, Sigma)), kinase reaction buffer (20 mM MOPS pH 7.0, 1 mM EDTA, 5% glycerol, 0.01% Brij-35, 0.1% β-mercaptoethanol, 1 mg/mL BSA, 100 μM ATP, 0.1 μCi per well [^33P]-γ-ATP (2,500-3,000 Ci/mmol), and 500 nM test compound (final concentration of DMSO was 4%) or 4% DMSO alone (as the control sample), was incubated at 30° C. for 30 minutes. The reaction was then stopped by adding 5 μL of 3% phosphoric acid solution. The resultant solution was transferred to and harvested by a filter plate (UniFilter-96 GF/B, PerkinElmer). The filter plate was then washed 20 times with d.d. H2O for 5 min followed by the addition of 30 μL of MicroScint™-20 Cocktail (PerkinElmer). After the plate was sealed, the retained radioactivity on the filter was counted using a TopCount scintillation detector (PerkinElmer). The percentage of inhibition rate of the test compound was calculated by dividing the retained radioactivity of the test sample with the retained radioactivity of the control sample and shown in Table 3.

[6] = target: T6, c-Met kinase (Homo sapiens, UniProt P08581); assay: c-Met kinase assay (33P incorporation into Poly(Glu-Tyr)); conditions: 500 nM test compound
T6 construct: recombinant N-terminal 6×His-tagged c-Met kinase domain construct expressed from baculovirus; 6xHis (N); made in house
T6 sequence (P08581 1078-1345 limits assumed): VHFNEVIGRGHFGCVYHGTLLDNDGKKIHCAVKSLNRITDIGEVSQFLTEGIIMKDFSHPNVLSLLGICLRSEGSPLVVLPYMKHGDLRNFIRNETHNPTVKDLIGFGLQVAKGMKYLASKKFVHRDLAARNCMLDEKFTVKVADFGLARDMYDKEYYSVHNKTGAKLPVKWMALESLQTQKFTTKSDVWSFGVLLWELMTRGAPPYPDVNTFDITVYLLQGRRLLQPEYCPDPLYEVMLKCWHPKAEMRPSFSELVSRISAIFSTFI
How it was run: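 Single-concentration test (500 nM compound) at 30° C for 30 min, pH 7.0 MOPS buffer with 100 μM ATP and [33P]-γ-ATP. Enzyme was baculovirus-expressed 6×His c-Met kinase domain (5 ng), substrate Poly(Glu-Tyr) 4:1. Inhibition percentage derived from filter-bound counts relative to DMSO control.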

T1 sequence (P09619 600-962 limits assumed): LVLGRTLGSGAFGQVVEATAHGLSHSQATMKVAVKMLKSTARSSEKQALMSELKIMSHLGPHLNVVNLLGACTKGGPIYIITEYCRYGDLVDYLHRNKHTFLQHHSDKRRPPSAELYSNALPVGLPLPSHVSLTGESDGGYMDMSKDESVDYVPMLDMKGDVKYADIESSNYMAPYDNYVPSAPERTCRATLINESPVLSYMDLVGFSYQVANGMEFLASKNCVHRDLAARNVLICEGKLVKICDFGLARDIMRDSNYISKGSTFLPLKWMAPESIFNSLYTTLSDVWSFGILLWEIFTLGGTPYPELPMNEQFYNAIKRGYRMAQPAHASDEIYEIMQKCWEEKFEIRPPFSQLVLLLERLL

inhibition at 0.5 µM [1]	inhibition at 0.1 µM [2]	inhibition at 1 µM [3]	inhibition at 1 µM [4]	inhibition at 0.5 µM [5]	inhibition at 0.5 µM [6]	SMILES
7.9%	11.8%	27.1%	2.4%	44.8%		O=C(O)CCc1c(/C=C2\C(=O)Nc3ccc(NC(=O)c4ccc([N+](=O)[O-])cc4)cc32)[nH]c2c1C(=O)CCC2 [DCB-70142, (Z)-3-(2-((5-(4-nitrobenzamido)-2-oxoindolin-3-ylidene)methyl)-4-oxo-4,5,6,7-tetrahydro-1H-indol-3-yl)propanoic acid]
	17.1%	8.9%	18%		0.2%	CCOC(=O)CCc1c(/C=C2\C(=O)Nc3cc(-c4ccc(O)cc4)ccc32)[nH]c2c1C(=O)CCCC2 [DCB-70150, (Z)-ethyl 3-(2-((6-(4-hydroxyphenyl)-2-oxoindolin-3-ylidene)methyl)-4-oxo-1,4,5,6,7,8-hexahydrocyclohepta[b]pyrrol-3-yl)propanoate]
	42.2%	37.2%	23.6%		-6.5%	O=C(O)CCc1c(/C=C2\C(=O)Nc3cc(-c4ccc(O)cc4)ccc32)[nH]c2c1C(=O)CCCC2 [DCB-70151, (Z)-3-(2-((6-(4-hydroxyphenyl)-2-oxoindolin-3-ylidene)methyl)-4-oxo-1,4,5,6,7,8-hexahydrocyclohepta[b]pyrrol-3-yl)propanoic acid]
